Each block holds one compound with its values, some of them ahead of it.
What was measured:
[1] = Behaviour of the solid on filtration under ambient conditions / ambient humidity; assay type: physicochemical
Description: Crude product (351 g) from the above example was dissolved in 1.5 L of methanol, then 625 mL of methanol was removed in vacuo. For the initial crystallization experiments, this solution was placed in a glass round-bottomed flask, and the side was scratched with a metal spatula. The solution was then stored at −20° C. for several weeks until a crystalline precipitate formed. […] For subsequent preparations, the methanol solution was seeded with 100 mg of crystalline nicotinamide riboside chloride, and the solution was allowed to stand at ambient temperature while the product crystallized over the course of several hours. Using a Buchner funnel filtration apparatus, the crystals were filtered and washed with 200 mL of ice-cold methanol. The product was dried on the filter, open to the air, for 1.5 h, then under high vacuum (<[…]) at ambient temperature for 18 h. The yield was 157 g (34%) of a light yellow solid. The product contained 0.9 molar equivalents of methanol by ^1H NMR integration (i.e., nicotinamide riboside chloride ●0.9 methanol crystals). This residual methanol could not be removed by additional drying at <40° C. […]

[2] = test system: Human primary dermal fibroblasts (HDFa); assay: NAD measurement in dermal fibroblasts treated with NR chloride (ADPR cyclase enzymatic assay, absorbance 405 nm); assay type: cell-based; settings: for NAD levels: FIG. 16
Description: Human primary dermal fibroblasts derived from adult human skins (HDFa, Life technologies, Grand Island, NY, Passage 2-4) were grown in Medium 106 (Life Technologies) supplemented with Low Serum Growth Supplement (LSGS) (Life Technologies) and seeded in 12-well plates with density at 2×10^5 cells per well and 1 ml of culture medium in each well.
Stock solution of NR chloride (MW: 322.742, GSK3002633B) was prepared freshly in water at 100 mM. Cells were treated with NR chloride at different concentrations as shown in […] for 6 and 24 hrs, washed twice with PBS containing 5 mM EDTA, and then subject to Nicotinamide adenine dinucleotide (NAD) measurement. In brief, acetonitrile (ACN) lysis buffer (Ammonium Acetate (50 mM) and 90% acetonitrile) was added to each well (200 μl/well) to lyse the cells at RT for 5-10 mins by gently rotating on a culture plate shaker at a low speed. Enzyme master mix (300 μM of 5-Amino-(3,4′-bipyridin)-6(1H)-one (Inamrinone) (Sigma-Aldrich), a substrate for ADP ribosyl cyclase (ADPR cyclase)) and 30 nM ADPR Cyclase (Sigma, St. Louis, Mont.), in 75 mM HEPES pH7 buffer (Life Technologies)) was added to the lysed cells (400 μl of enzyme master mix/well). Enzymatic reaction was incubated at RT for ˜30 min. At the end of incubation, the supernatant (200 μl) of the reaction solution from each well was transferred to each well of a 96-well plate and absorbance was read twice in the 96-well plate at 405 nm using a plate reader (Spectra Maxplus, Molecular Devices, Sunnyvale, Calif.). A mixture of enzyme master mix and ACN extraction solution at 2:1 ratio was used as a blank reference.
Isolated, chemically-pure NAD (Sigma) was used as a positive control. Other NAD assays are known in the art or otherwise publically available as a kit (see, e.g., Neubert, D., et al., Biochim. Biophys. Acta, 1964, 92, 610-12; Emanuelli, M., et al. J. Chromatog. B. 676, 13-18; and NAD/NADH Cell-Based Assay Kit by Cayman Chemical).

[3] = Thermal decomposition of the crystals on heating under vacuum, confirmed by 1H NMR in D2O; assay type: physicochemical
Description: The crystalline nature of this product was confirmed by optical microscopy using polarized light (FIG. 5). A 50 mg portion of this material was dried under high vacuum (<1.0 mm Hg) and at ambient temperature for 48 h. […] The material completely decomposed, without melting, within 17 min at 100° C. at <1 mm Hg. (Decomposition was confirmed by ^1H NMR spectral analysis in D2O solution after the heating period.) In contrast, a sample could be heated at 80° C. for 1 h and <1 mm Hg with <3% decomposition. ^1H NMR (400 MHz, D2O) δ 9.63 (s, 1H, H2), 9.31 (d, 1H, J=5.9 Hz, H4), 9.01 (dd, 1H, J=8.0 Hz, 1.0 Hz, H6), 8.32 (dd, 1H, J=8.0 Hz, 5.9 Hz, H5), 6.29 (d, 1H, J=3.9 Hz, H1′), 4.55 (t, 1H, J=3.9 Hz, H2′), 4.50 (m, 1H, H4′), 4.38 (t, 1H, J=3.9 Hz, H3′), 4.08 (dd, 1H, J=12, 3 Hz, H5′), 3.93 (dd, 1H, J=12, 3, Hz, H5′); ^13C NMR (75 MHz, D2O) δ 165.8 (C7), 145.6 (C6), 142.6 (C4), 140.4 (C2), 133.9 (C3), 128.4 (C5), 99.9 (C1′), 87.6 (C4′), 77.4 (C2′), 69.7 (C3′), 60.1 (C5′); IR (cm−1) 3299, 1700, 1398, 1080, 982, 887, 795 (see FIG. 8). XRPD (degrees) 14.2, 17.1, 20.5, 22.7, 23.8, 25.1, 26.8, 34.2 X-ray powder diffraction (XRPD) data are included as FIG. 6. The XRPD serves as a fingerprint for the crystalline form of nicotinamide riboside chloride with only trace residual solvents present.

SMILES: NC(=O)c1ccc[n+]([C@@H]2O[C@H](CO)[C@@H](O)[C@H]2O)c1.[Cl-] [Example 3, 3-carbamoyl-1-((2R,3R,4S,5R)-3,4-dihydroxy-5-(hydroxymethyl)tetrahydrofuran-2-yl)pyridin-1-ium chloride]
behaviour on the filter under ambient conditions [1]: could be filtered under ambient conditions while remaining free-flowing

NAD levels ([2]; 6 hrs treatment): dose-dependently increased NAD levels | NAD levels ([2]; 24 hrs treatment): dose-dependently increased NAD levels
SMILES: NC(=O)c1ccc[n+]([C@@H]2O[C@H](CO)[C@@H](O)[C@H]2O)c1.[Cl-] [NR chloride, nicotinamide riboside chloride]
intracellular NAD levels ([2]; FIG. 16, time not given): dose-dependently increases intracellular NAD levels

time to complete decomposition, without melting ([3]; 100° C. at <1 mm Hg): ≤ 17 min | decomposition ([3]; heated at 80° C. for 1 h and <1 mm Hg): < 3%
SMILES: NC(=O)c1ccc[n+]([C@@H]2O[C@H](CO)[C@@H](O)[C@H]2O)c1.[Cl-] [Example 4, nicotinamide riboside chloride]
resistance to decomposition upon heating ([3]; compared with amorphous forms of nicotinamide riboside): far more resistant to decomposition upon heating than amorphous forms

— US10316054B2, “Preparation and use of crystalline beta-D-nicotinamide riboside” (GlaxoSmithKline Intellectual Property (No. 2) Limited, priority 2014, dated 2019)
